The results in this text go back to PubChem BioAssay AID1259411 (Chemical Carcinogenesis Research Information System (CCRIS), 2018).

This data set relates to rodent carcinogenicity bioassays, tumor incidence. The data set can be described thus: CCRIS carcinogenicity studies. Summed up: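 Archive of carcinogenicity, mutagenicity, tumor promotion and tumor inhibition results drawn from journals, NCI reports and other sources, expert-reviewed; covers 1985-2011 and is no longer updated.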

Molecules are shown by their SMILES. Active and inactive are the calls of the source. How the calls were made is not given here.

Turning to `CC(C)(C)O`, the carcinogen call was “active; positive” (Species: MOUSE, Strain/Sex: B6C3F1/FEMALE, Route: ORAL, Dose: 0, 5, 10, 20 MG/ML IN DRINKING WATER FOR 103 WK (STUDY DURATION: 103 WK), Dose: 0, 5, 10, 20 MG/ML IN DRINKING WATER FOR 103 WK (STUDY DURATION: 103 WK), Tumor Site: Type of Lesion: THYROID GLAND: FOLLICULAR CELL ADENOMA); “equivocal” (Species: MOUSE, Strain/Sex: B6C3F1/MALE, Route: ORAL, Dose: 0, 5, 10, 20 MG/ML IN DRINKING WATER FOR 103 WK (STUDY DURATION: 103 WK), Dose: 0, 5, 10, 20 MG/ML IN DRINKING WATER FOR 103 WK (STUDY DURATION: 103 WK), Tumor Site: Type of Lesion: THYROID GLAND: FOLLICULAR CELL ADENOMA OR CARCINOMA); “inactive; negative” (Species: RAT, Strain/Sex: F344/FEMALE, Route: ORAL, Dose: 0, 2.5, 5, 10 MG/ML IN DRINKING WATER FOR 103 WK (STUDY DURATION: 103 WK), Dose: 0, 2.5, 5, 10 MG/ML IN DRINKING WATER FOR 103 WK (STUDY DURATION: 103 WK)); “active; positive” (Species: RAT, Strain/Sex: F344/MALE, Route: ORAL, Dose: 0, 1.25, 2.5, 5 MG/ML IN DRINKING WATER FOR 103 WK (STUDY DURATION: 103 WK), Dose: 0, 1.25, 2.5, 5 MG/ML IN DRINKING WATER FOR 103 WK (STUDY DURATION: 103 WK), Tumor Site: Type of Lesion: KIDNEY (RENAL TUBULE): ADENOMA OR CARCINOMA).
As for `C=C(C)C(=O)OC`, the carcinogen call (Species: HAMSTER, Strain/Sex: GOLDEN/FEMALE, Route: INHALATION, Dose: 0, 25, 100, 400 PPM IN AIR 6 HR/D 5 D/WK FOR 18 MO (STUDY DURATION: 78 WK), Dose: 0, 25, 100, 400 PPM IN AIR 6 HR/D 5 D/WK FOR 18 MO (STUDY DURATION: 78 WK)) was “inactive; negative”; the carcinogen call (Species: HAMSTER, Strain/Sex: GOLDEN/MALE, Route: INHALATION, Dose: 0, 25, 100, 400 PPM IN AIR 6 HR/D 5 D/WK FOR 18 MO (STUDY DURATION: 78 WK), Dose: 0, 25, 100, 400 PPM IN AIR 6 HR/D 5 D/WK FOR 18 MO (STUDY DURATION: 78 WK)) was “inactive; negative”; the carcinogen call (Species: MOUSE, Strain/Sex: B6C3F1/FEMALE, Route: INHALATION, Dose: 0, 500, 1000 PPM 6 HR/D, 5 D/WK FOR 102 WK, Dose: 0, 500, 1000 PPM 6 HR/D, 5 D/WK FOR 102 WK) is “inactive; negative”; the carcinogen call (Species: MOUSE, Strain/Sex: B6C3F1/MALE, Route: INHALATION, Dose: 0, 500, 1000 PPM 6 HR/D, 5 D/WK FOR 102 WK, Dose: 0, 500, 1000 PPM 6 HR/D, 5 D/WK FOR 102 WK) is “inactive; negative”; the carcinogen call (Species: RAT, Strain/Sex: F344/FEMALE, Route: INHALATION, Dose: 0, 25, 100, 400 PPM IN AIR 6 HR/D 5 D/WK FOR 24 MO (STUDY DURATION: 104-106 WK), Dose: 0, 25, 100, 400 PPM IN AIR 6 HR/D 5 D/WK FOR 24 MO (STUDY DURATION: 104-106 WK)) is “inactive; negative”; the carcinogen call (Species: RAT, Strain/Sex: F344/FEMALE, Route: INHALATION, Dose: 0, 250, 500 PPM 6 HR/D, 5 D/WK FOR 102 WK, Dose: 0, 250, 500 PPM 6 HR/D, 5 D/WK FOR 102 WK) is “inactive; negative”. Besides, the carcinogen call is “inactive; negative” (Species: RAT, Strain/Sex: F344/MALE, Route: INHALATION, Dose: 0, 25, 100, 400 PPM IN AIR 6 HR/D 5 D/WK FOR 24 MO (STUDY DURATION: 104-106 WK), Dose: 0, 25, 100, 400 PPM IN AIR 6 HR/D 5 D/WK FOR 24 MO (STUDY DURATION: 104-106 WK)) and “inactive; negative” (Species: RAT, Strain/Sex: F344/MALE, Route: INHALATION, Dose: 0, 500, 1,000 PPM 6 HR/D, 5 D/WK FOR 102 WK, Dose: 0, 500, 1,000 PPM 6 HR/D, 5 D/WK FOR 102 WK).
Turning to `CCCCN(CCCC)N=O`, the carcinogen call (Species: GUINEA PIG, Route: ORAL, Tumor Site: Type of Lesion: LIVER) is “active; positive”; the carcinogen call (Species: HAMSTER, Route: GAVAGE, Tumor Site: Type of Lesion: LUNG, RESPIRATORY TRACT, TRACHEA, FORESTOMACH, Tumor Site: Type of Lesion: LUNG, RESPIRATORY TRACT, TRACHEA, FORESTOMACH) was “active; positive”; the carcinogen call (Species: HAMSTER, Route: INTRAPERITONEAL, Tumor Site: Type of Lesion: RESPIRATORY TRACT) was “active; positive”; the carcinogen call (Species: HAMSTER, Route: SUBCUTANEOUS, Tumor Site: Type of Lesion: TRACHEA, URINARY BLADDER, FORESTOMACH, RESPIRATORY TRACT, Tumor Site: Type of Lesion: TRACHEA, URINARY BLADDER, FORESTOMACH, RESPIRATORY TRACT) was “active; positive”; the carcinogen call (Species: MOUSE, Route: INTRAVENOUS, Tumor Site: Type of Lesion: HEMATOPOIETIC SYSTEM (LEUKEMIA)) was “active; positive”; the carcinogen call (Species: MOUSE, Route: ORAL, Tumor Site: Type of Lesion: ESOPHAGUS, FORESTOMACH, LIVER, URINARY BLADDER, Tumor Site: Type of Lesion: ESOPHAGUS, FORESTOMACH, LIVER, URINARY BLADDER) is “active; positive”. The carcinogen call was “active; positive” (Species: MOUSE, Route: SUBCUTANEOUS, Tumor Site: Type of Lesion: URINARY BLADDER, LUNG); “active; positive” (Species: RABBIT, Route: SUBCUTANEOUS, Tumor Site: Type of Lesion: URINARY BLADDER); “active; positive” (Species: RAT, Route: ORAL, Tumor Site: Type of Lesion: ESOPHAGUS, LIVER, URINARY BLADDER, Tumor Site: Type of Lesion: ESOPHAGUS, LIVER, URINARY BLADDER); “active; positive” (Species: RAT, Route: SUBCUTANEOUS, Tumor Site: Type of Lesion: URINARY BLADDER, LUNG).
For the molecule `COP(=O)(NC(C)=O)SC` (stereo unspecified), the carcinogen call by setting is: (Species: Mouse, Strain/Sex: CD-1/Female, Route: Oral, Dose: 0, 50, 250, 1000 ppm (0; 8; 42; 167 mg/kg/d) in feed for 104 wk, Dose: 0, 50, 250, 1000 ppm (0; 8; 42; 167 mg/kg/d) in feed for 104 wk, Tumor Site: Type of Lesion: Liver: Hepatocellular carcinoma and adenoma (highest dose only)) “inactive; negative; purity = 92.7, 92.1%”; (Species: Mouse, Strain/Sex: CD-1/Male, Route: Oral, Dose: 0, 50, 250, 1000 ppm (0; 7; 36; 146 mg/kg/d) in feed for 104 wk, Dose: 0, 50, 250, 1000 ppm (0; 7; 36; 146 mg/kg/d) in feed for 104 wk) “inactive; negative; purity = 92.7, 92.1%”.
On to `OB(O)O`, for which the carcinogen call is “inactive; negative” (Species: MOUSE, Strain/Sex: B6C3F1/FEMALE, Route: ORAL, Dose: 0, 2500, 5000 PPM IN DIET FOR 103 WK (STUDY DURATION: 105 WK), Dose: 0, 2500, 5000 PPM IN DIET FOR 103 WK (STUDY DURATION: 105 WK)) and “inactive; negative” (Species: MOUSE, Strain/Sex: B6C3F1/MALE, Route: ORAL, Dose: 0, 2500, 5000 PPM IN DIET FOR 103 WK (STUDY DURATION: 105 WK), Dose: 0, 2500, 5000 PPM IN DIET FOR 103 WK (STUDY DURATION: 105 WK)).
